“And” between values parts separate entries of the source, which are not always exact repeats. Equal values may be shown once.
Columns and labels:
Type in all cases: cell-based
[1] = test system: diheteromeric human recombinant NMDAR containing GluN1 plus GluN2A, GluN2B, GluN2C or GluN2D; test: FLIPR calcium assay, statements for all four NMDAR subtypes together
Text: An operational equation for allosteric modulators (Leach K, Sexton P M and Christopoulos A, Allosteric GPCR modulators: taking advantage of permissive receptor pharmacology, Trends Pharmacol. Sci. 28: 382-389, 2007; Kenakin T P, Overview of receptor interaction of agonists and antagonists, Curr. Protoc. Pharmacol. Chapter 4: Unit 4.1, 2008, Kenakin T P, Biased signalling and allosteric machines: new vistas and challenges for drug discovery, Br. J. Pharmacol. 165: 1659-1669, 2012) was created in Prism 8 (GraphPad) software to estimate KB and a parameters for every test item, with the assumption that, as a pore blocker, every test item would be able to produce a compete blockade of agonist response, at sufficiently high concentration: […]

[2] = molecular target: T1, human NMDA receptor GluN1-GluN2D (Homo sapiens, UniProt O15399+Q05586); test: FLIPR calcium assay, quinolinic acid, gentamicin, dextromethadone (Example 5 Part II), GluN1-GluN2D-CHO; details: 10 μM glycine; for calcium response (mean±SEM): GluN2D, n=42
T1 construct: expressed in transfected cells; host or cells: CHO
Procedure: (§1) Quinolinic acid or gentamicin CRCs were also produced, in presence of 10 μM glycine.
(§2) Test items were evaluated in FLIPR for their ability to modulate, alone or in combination, calcium entry in presence of […], using four CHO cell lines expressing diheteromeric human NMDA receptor (NMDAR): GluN-/GluN2A-CHO, GluN1-GluN2B-CHO, GluN1-GluN2C-CHO, GluN1-GluN2D-CHO.
(§3) The first aim of the study was to evaluate quinolinic acid or gentamicin CRC effect in the presence of 10 μM glycine.
(§4) FLIPR determination of intracellular calcium level was used as a read-out for NMDAR activation.
(§5) 400× compound plate was stored at −20° C. till FLIPR experimental day.
(§6) A 4× compound plate was generated from 400× compound plate by addition of up to 30 μl/well of compound buffer on FLIPR experimental day.
(§7) A FLIPR system was used to monitor intracellular calcium level in NMDAR cell lines, pre-loaded for 1 hour with Fluo-4, and then washed with assay buffer.
(§8) Y=Bottom+(Top−Bottom)/(1+10^((LogEC50−X)*HillSlope))
(§9) Test item CRC data were plotted by Prism 8 GraphPad software, in the different experimental conditions. And, column analysis, performed by Prism 8 GraphPad software, was one way ANOVA followed by Tukey's multiple comparisons test, with a single pooled variance.

[3] = molecular target: T2, human NMDA receptor GluN1-GluN2B (Homo sapiens, UniProt Q05586+Q13224); test: cell-based
T2 construct: expressed in transfected cells; host or cells: CHO
Procedure: as §4
(§10) 400× compound plate was stored at −20° C. until FLIPR experimental day.
(§11) 4× compound plate was generated from 400× compound plate by addition of up to 30 μl/well of compound buffer on FLIPR experimental day.
as §7
(§12) Y=Bottom+(Top−Bottom)/(1+10^((LogEC50−Log[A])*HillSlope))

[4] = molecular target: T2, human NMDA receptor GluN1-GluN2B; test: FLIPR calcium assay, quinolinic acid, gentamicin, dextromethadone (Example 5 Part II), GluN1-GluN2B-CHO; details: 10 μM glycine, GluN2B, n=42
Procedure: as §1, §2, §3, §4, §5, §6, §7, §8, §9

[5] = molecular target: T3, human NMDA receptor GluN1-GluN2A (Homo sapiens, UniProt Q05586+Q12879); test: FLIPR calcium assay, test item effect on L-glutamate CRC, GluN1-GluN2A-CHO
T3 construct: expressed in transfected cells; host or cells: CHO
Procedure: as §4, §10, §11, §7, §12

[6] = molecular target: T3, human NMDA receptor GluN1-GluN2A; test: FLIPR calcium assay, quinolinic acid, gentamicin, dextromethadone (Example 5 Part II), GluN1-GluN2A-CHO; parameters: calcium response (mean±SEM): unit not given here; details: 10 μM glycine, GluN2A, n=42
Procedure: as §1, §2, §3, §4, §5, §6, §7, §8, §9

[7] = molecular target: T1, human NMDA receptor GluN1-GluN2D; test: FLIPR calcium assay, test item effect on L-glutamate CRC, GluN1-GluN2D-CHO
Procedure: as §4, §10, §11, §7, §12

[8] = molecular target: T4, human NMDA receptor GluN1-GluN2C (Homo sapiens, UniProt Q05586+Q14957); test: FLIPR calcium assay, test item effect on L-glutamate CRC, GluN1-GluN2C-CHO
T4 construct: expressed in transfected cells; host or cells: CHO
Procedure: as §4, §10, §11, §7, §12

[9] = molecular target: T4, human NMDA receptor GluN1-GluN2C; test: FLIPR calcium assay, quinolinic acid, gentamicin, dextromethadone (Example 5 Part II), GluN1-GluN2C-CHO; details: 10 μM glycine; for calcium response (mean±SEM): GluN2C, n=42
Procedure: as §1, §2, §3, §4, §5, §6, §7, §8, §9

[10] = L-glutamate alone, 10 μM glycine
[11] = calculated from EC50 and Hill slope

T2 sequence (Q13224 27-1484, other chains not shown): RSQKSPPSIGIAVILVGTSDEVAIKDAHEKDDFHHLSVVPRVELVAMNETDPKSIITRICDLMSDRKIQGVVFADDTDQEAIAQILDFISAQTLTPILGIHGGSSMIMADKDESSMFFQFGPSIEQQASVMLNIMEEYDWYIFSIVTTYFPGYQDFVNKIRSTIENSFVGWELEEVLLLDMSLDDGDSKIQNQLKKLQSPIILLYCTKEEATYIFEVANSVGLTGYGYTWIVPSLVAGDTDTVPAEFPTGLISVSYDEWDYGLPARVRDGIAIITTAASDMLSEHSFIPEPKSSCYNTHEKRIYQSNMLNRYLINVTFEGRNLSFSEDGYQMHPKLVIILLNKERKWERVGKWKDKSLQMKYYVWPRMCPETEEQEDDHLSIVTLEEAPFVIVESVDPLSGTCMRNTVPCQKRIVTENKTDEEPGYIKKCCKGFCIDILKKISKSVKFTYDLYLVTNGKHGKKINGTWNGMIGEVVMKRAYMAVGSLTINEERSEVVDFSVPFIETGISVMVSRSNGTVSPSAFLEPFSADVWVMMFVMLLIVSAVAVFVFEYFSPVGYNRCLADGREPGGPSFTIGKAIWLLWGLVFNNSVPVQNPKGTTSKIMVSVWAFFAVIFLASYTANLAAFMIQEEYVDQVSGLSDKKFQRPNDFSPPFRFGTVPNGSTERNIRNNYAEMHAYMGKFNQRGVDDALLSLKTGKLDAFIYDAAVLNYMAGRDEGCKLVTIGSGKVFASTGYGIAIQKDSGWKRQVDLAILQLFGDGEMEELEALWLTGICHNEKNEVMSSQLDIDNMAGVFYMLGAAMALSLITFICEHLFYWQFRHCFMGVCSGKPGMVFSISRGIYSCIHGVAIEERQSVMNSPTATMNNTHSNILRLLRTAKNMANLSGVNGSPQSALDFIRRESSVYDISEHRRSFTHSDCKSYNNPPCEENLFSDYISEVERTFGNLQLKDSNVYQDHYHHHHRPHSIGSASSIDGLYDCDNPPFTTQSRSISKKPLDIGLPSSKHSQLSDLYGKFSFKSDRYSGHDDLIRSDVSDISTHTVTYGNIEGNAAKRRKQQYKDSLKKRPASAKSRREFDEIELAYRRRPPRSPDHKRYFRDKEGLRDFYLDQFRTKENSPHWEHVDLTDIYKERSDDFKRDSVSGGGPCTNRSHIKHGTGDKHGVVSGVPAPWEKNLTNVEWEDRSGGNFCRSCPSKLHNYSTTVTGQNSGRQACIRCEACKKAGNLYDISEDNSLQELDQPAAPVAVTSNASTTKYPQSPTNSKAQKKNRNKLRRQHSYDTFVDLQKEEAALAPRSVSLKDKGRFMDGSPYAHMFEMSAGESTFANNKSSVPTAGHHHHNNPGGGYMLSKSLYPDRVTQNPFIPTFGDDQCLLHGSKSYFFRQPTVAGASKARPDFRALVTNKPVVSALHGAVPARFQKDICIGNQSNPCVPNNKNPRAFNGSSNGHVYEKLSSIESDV
T4 sequence (Q14957 20-1233, other chains not shown): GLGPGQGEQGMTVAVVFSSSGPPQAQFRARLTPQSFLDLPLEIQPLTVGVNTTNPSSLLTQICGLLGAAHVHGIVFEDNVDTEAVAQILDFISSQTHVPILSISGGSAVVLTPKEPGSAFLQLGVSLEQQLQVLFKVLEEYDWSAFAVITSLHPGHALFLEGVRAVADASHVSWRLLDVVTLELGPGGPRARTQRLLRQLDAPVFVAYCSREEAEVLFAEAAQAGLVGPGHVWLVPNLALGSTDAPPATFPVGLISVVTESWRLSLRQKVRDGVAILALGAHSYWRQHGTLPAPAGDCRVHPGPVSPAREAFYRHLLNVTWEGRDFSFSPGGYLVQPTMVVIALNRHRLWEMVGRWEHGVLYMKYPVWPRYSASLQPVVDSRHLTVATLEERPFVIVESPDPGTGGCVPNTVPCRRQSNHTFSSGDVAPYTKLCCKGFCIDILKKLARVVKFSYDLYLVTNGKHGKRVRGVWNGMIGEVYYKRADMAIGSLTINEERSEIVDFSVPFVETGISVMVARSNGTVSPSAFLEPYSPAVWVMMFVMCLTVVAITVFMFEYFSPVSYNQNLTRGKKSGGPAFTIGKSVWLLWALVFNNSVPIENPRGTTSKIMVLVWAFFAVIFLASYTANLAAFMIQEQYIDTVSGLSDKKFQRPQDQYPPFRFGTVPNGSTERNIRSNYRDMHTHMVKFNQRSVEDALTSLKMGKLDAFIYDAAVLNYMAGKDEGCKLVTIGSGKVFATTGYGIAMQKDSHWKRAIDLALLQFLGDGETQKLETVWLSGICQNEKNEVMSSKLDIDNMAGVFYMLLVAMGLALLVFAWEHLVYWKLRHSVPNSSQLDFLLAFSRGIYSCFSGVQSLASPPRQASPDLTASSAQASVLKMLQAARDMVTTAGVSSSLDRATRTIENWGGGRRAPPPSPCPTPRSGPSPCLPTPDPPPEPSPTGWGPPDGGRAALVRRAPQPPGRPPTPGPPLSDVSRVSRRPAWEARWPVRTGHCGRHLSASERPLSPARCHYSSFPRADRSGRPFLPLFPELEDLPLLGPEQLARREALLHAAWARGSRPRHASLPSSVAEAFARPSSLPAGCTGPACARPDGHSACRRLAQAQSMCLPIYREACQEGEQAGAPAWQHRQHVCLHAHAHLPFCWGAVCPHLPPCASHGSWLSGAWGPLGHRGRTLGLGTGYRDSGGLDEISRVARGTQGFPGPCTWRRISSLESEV
T1 sequence (O15399 28-1336, other chains not shown): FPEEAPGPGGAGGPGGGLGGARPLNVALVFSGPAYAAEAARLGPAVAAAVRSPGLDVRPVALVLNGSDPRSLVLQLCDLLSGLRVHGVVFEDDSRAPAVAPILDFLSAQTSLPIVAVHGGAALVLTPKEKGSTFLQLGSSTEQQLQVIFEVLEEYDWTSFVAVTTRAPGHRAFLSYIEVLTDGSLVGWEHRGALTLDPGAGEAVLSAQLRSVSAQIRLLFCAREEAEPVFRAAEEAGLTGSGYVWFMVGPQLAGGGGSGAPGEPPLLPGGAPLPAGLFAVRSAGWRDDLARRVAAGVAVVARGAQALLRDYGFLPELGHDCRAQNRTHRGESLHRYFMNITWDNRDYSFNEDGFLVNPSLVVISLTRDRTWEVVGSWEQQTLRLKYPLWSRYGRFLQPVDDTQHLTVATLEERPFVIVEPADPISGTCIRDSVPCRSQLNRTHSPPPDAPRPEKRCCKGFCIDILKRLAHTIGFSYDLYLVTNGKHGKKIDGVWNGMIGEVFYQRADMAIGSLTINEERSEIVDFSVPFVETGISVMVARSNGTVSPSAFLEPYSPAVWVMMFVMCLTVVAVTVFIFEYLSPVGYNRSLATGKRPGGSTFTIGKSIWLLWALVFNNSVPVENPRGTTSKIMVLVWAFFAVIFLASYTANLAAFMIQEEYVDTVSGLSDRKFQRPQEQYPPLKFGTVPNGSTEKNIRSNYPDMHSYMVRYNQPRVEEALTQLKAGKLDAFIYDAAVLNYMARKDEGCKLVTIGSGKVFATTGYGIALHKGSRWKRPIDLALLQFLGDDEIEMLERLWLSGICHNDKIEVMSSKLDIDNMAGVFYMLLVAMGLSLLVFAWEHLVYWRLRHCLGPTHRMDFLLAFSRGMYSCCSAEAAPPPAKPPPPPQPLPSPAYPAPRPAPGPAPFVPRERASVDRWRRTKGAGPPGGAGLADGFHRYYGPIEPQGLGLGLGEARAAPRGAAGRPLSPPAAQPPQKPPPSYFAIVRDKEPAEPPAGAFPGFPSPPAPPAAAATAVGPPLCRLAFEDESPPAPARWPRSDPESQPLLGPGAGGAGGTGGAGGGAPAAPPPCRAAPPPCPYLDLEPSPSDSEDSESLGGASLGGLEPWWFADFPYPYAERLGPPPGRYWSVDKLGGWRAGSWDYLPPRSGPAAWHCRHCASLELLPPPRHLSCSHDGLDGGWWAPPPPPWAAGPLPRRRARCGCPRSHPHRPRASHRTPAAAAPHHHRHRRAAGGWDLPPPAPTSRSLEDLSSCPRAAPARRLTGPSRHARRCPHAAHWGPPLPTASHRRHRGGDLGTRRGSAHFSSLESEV

## (+)-MK 801 maleate
[1]; 6 test item concentrations
  profile on L-glutamate CRC: insurmountable profile
[1]; from estimated affinities
  GluN2 subunit preference: slight preference for GluN2B containing NMDAR
[1]; read-out: estimated KB with any/all of the NMDAR subtypes
  Kb: 50 nM and ≤ 50 nM

## N[C@@H](CCC(=O)O)C(=O)O [L-glutamate, L-glutamic acid]
[2]; 0.04 μM L-Glu
  calcium response (mean±SEM): 18 ± 1.2
[2]; 0.2 μM L-Glu
  calcium response (mean±SEM): 92 ± 2.0
[2]
  efficacy of 0.2 μM L-glutamate alone: 92±2.0%
[2]; Table 41: 0.04 μM L-Glu
  calcium response (mean±SEM): 18 ± 1.2
[2]; Table 43: 0.2 μM L-Glu
  calcium response (mean±SEM): 92 ± 2.0
[3]
  Bottom: 1.7
  ECF, F=5: 140 nM
  ECF, F=10: 240 nM
  ECF, F=20: 450 nM
  ECF, F=30: 680 nM
  ECF, F=40: 950 nM
  ECF, F=90: 7.05 µM
  ECF, F=95: 13 µM
  ECF, F=99 (maximal effect): 45 µM
  HillSlope: 1.3
  Span: 109
  Top: 111
[4]; 0.04 μM L-Glu
  calcium response (mean±SEM): −0.9 ± 0.6
[4]; 0.2 μM L-Glu
  calcium response (mean±SEM): 18 ± 1.2
[4]; Table 41: 0.04 μM L-Glu
  calcium response (mean±SEM): 0.9 ± 0.6
[4]; Table 43: 0.2 μM L-Glu
  calcium response (mean±SEM): 18 ± 1.2
[5]; [10]
  Bottom: −0.62
  HillSlope: 1.0
  Span: 107
  Top: 106
[5]; [11]
  ECF, F=5: 160 nM
  ECF, F=10: 280 nM
  ECF, F=20: 630 nM
  ECF, F=30: 1.07 µM
  ECF, F=40: 1.67 µM
  ECF, F=90: 23 µM
  ECF, F=95: 48 µM
  ECF, F=99 (maximal effect): 250 µM
[6]; 0.04 μM L-Glu
  calcium response (mean±SEM): 1.7 ± 0.3
[6]; 0.2 μM L-Glu
  calcium response (mean±SEM): 22 ± 0.7
[6]; Table 41: 0.04 μM L-Glu
  calcium response (mean±SEM): 1.7 ± 0.3
[6]; Table 43: 0.2 μM L-Glu
  calcium response (mean±SEM): 22 ± 0.7
[7]; [10]
  Bottom: 5.3
  HillSlope: 1.6
  LogEC50: −7.5
  Span: 99
  Top: 105
[7]; [11]
  ECF, F=5: 54 nM
  ECF, F=10: 86 nM
  ECF, F=20: 140 nM
  ECF, F=30: 200 nM
  ECF, F=40: 260 nM
  ECF, F=90: 1.34 µM
  ECF, F=95: 2.14 µM
  ECF, F=99 (maximal effect): 6 µM and 6.01 µM
[8]; [10]
  Bottom: 0.88
  HillSlope: 1.5
  LogEC50: −7.1
  Span: 105
  Top: 106
[8]; [11]
  ECF, F=5: 120 nM
  ECF, F=10: 200 nM
  ECF, F=20: 350 nM
  ECF, F=30: 500 nM
  ECF, F=40: 660 nM
  ECF, F=90: 3.76 µM
  ECF, F=95: 6.19 µM
  ECF, F=99 (maximal effect): 19 µM
[9]; 0.04 μM L-Glu
  calcium response (mean±SEM): −1.2 ± 0.6
[9]; 0.2 μM L-Glu
  calcium response (mean±SEM): 30 ± 1.7
[9]; L-glutamate alone
  intracellular calcium increase elicited by 0.2 μM L-glutamate: 30±1.7%
[9]; Table 41: 0.04 μM L-Glu
  calcium response (mean±SEM): −1.2 ± 0.6
[9]; Table 43: 0.2 μM L-Glu
  calcium response (mean±SEM): 30 ± 1.7
